One molecule from patent US10869476B2 (priority 2015, dated 2020) can be followed below.

Read-outs that look alike come from different tables or passages of the source. Where only a bound is given, the exact number is not on record here.

Holding throughout (type): in vivo
The subject of experiment [1] is Fusarium head blight. The conditions noted are these: wheat field trials France and Germany 2016; for Fusarium head blight in % sev. after 11 to 20 days after application: UTC 13; for Fusarium head blight in % sev. after 21 to 46 days after application: UTC 35.
For experiment [2], the system named is Fusarium. As to conditions: wheat, 100 EC, 67 days after application.
For experiment [3], the system named is Gibberella zeae. As to conditions: winter wheat kernels after harvest, Germany 2015; 75 g a.i./ha, 100 EC formulation plus adjuvant, BBCH 65; HPLC-MS/MS; Untreated Control 497.

`CON(C(=O)c1cn(C)nc1C(F)F)C(C)Cc1c(Cl)cc(Cl)cc1Cl` (stereo not shown) [Pydiflumetofen, 3-(Difluoromethyl)-N-methoxy-1-methyl-N-[1-(2,4,6-trichlorophenyl)-2-propanyl]-1H-pyrazole-4-carboxamide]: the “Fusarium head blight in % sev. after 11 to 20 days after application” value in experiment [1] (45 g a.i./ha) worked out at 42 % sev; in experiment [1] (60 g a.i./ha), 52 % sev. For the same molecule, the “Fusarium head blight in % sev. after 21 to 46 days after application” value amounted to 51 % sev in experiment [1] (45 g a.i./ha) and 64 % sev in experiment [1] (60 g a.i./ha). The “3- Acetyl Deoxynivalenol” value is recorded as 63 ppb in experiment [2] (France, second trial (UTC 189), 45 g a.i./ha); less than 50 ppb in experiment [2] (France, second trial (UTC 189), 60 g a.i./ha); 0 ppb in experiment [2] (Germany, second trial (UTC 56), 45 g a.i./ha); 0 ppb in experiment [2] (Germany, second trial (UTC 56), 60 g a.i./ha). In addition, the Nivalenol in experiment [2] (Germany, first trial (UTC 126), 45 g a.i./ha) is given as 0 ppb; in experiment [2] (Germany, first trial (UTC 126), 60 g a.i./ha), 0 ppb; in experiment [2] (Germany, second trial (UTC 159), 45 g a.i./ha) it was 0 ppb; in experiment [2] (Germany, second trial (UTC 159), 60 g a.i./ha), 0 ppb. The “Deoxynivalenol Content” value in experiment [3] amounted to 44 ppm.
